Experiment [1] deals with S. aureus RN450. The experiment is described as follows: In Vitro Anti-Bacterial Activity Assay (MIC), gram positive. Conditions: Staphylococcus aureus, RN450, 18 h. The experiment is classed as cell-based.
Experiment [2] relates to E. coli mL308 225. The experiment is described as follows: In Vitro Anti-Bacterial Activity Assay (MIC), gram negative. The experiment is classed as cell-based. Conditions: Escherichia coli, ML308225, 18 h.
Where [3] appears, read: MIC class, Table 3, read-out: Antibiotic Activity Gram +.
[4] abbreviates: MIC class, Table 3, read-out: Antibiotic Activity Gram −.
[5] abbreviates: gram positive bacteria, read-out: Antibiotic Activity Gram + (MIC).
[6] abbreviates: gram negative bacteria, read-out: Antibiotic Activity Gram − (MIC).
Where [7] appears, read: MIC class, Table 3 (Continued), read-out: Gram+ activity.
[8] abbreviates: MIC class, Table 3 (Continued), read-out: Gram− activity.
The mark [9] stands for this setting: read-out: Antibiotic Activity Gram +.
The mark [10] stands for this setting: read-out: Antibiotic Activity Gram −.

Structures are written as SMILES. Read-outs that look alike come from different tables or passages of the source.

Take `CCOC(=O)C(NCc1ccc(OC)c(-c2ccc(O)c3c2C[C@H]2C[C@H]4[C@H](N(C)C)C(O)=C(C(N)=O)C(=O)[C@@]4(O)C(O)=C2C3=O)c1)C(C)C` (stereo partly drawn) [FX]: the MIC is less than 4 µg/mL in experiment [1] (setting [3]) and greater than 4 µg/mL in experiment [2] (setting [4]).
With `CN(C)c1cc(CNCc2ccccc2F)c(O)c2c1C[C@H]1C[C@H]3[C@H](N(C)C)C(O)=C(C(N)=O)C(=O)[C@@]3(O)C(O)=C1C2=O`, the figures for the MIC in experiment [1] (setting [5]) and in experiment [2] (setting [6]) were less than 4 µg/mL and greater than 4 µg/mL, respectively.
The corresponding values for `CCOC(=O)/C=C/c1cc(N(C)C)c2c(c1O)C(=O)C1=C(O)[C@]3(O)C(=O)C(C(N)=O)=C(O)[C@@H](N(C)C)[C@@H]3C[C@@H]1C2` are less than 4 µg/mL and greater than 4 µg/mL.
Regarding `Cc1cc(-c2ccc(O)c3c2C[C@H]2C[C@H]4[C@H](N(C)C)C(O)=C(C(N)=O)C(=O)[C@@]4(O)C(O)=C2C3=O)cc(C)n1` [PD], the MIC in experiment [1] (setting [3]) and in experiment [2] (setting [4]) was less than 4 µg/mL in each case.
Take `CN(C)[C@@H]1C(O)=C(C(N)=O)C(=O)[C@@]2(O)C(O)=C3C(=O)c4c(O)ccc(C#Cc5ccccc5)c4C[C@H]3C[C@@H]12`: the MIC in experiment [1] (setting [7]) and in experiment [2] (setting [8]) was less than 4 µg/mL in each case.
Consider `CCc1cc(CNC(=O)CN(C)C)c(O)c2c1C[C@H]1C[C@H]3[C@@H](N(C)C)C(O)=C(C(N)=O)C(=O)[C@@]3(O)C(O)=C1C2=O` [JL], for which the MIC is less than 4 µg/mL in experiment [1] (setting [3]) and greater than 4 µg/mL in experiment [2] (setting [4]).
Consider `CCOP(=O)(OCC)C(Nc1ccccc1)c1ccc(-c2cc(N(C)C)c3c(c2O)C(=O)C2=C(O)[C@]4(O)C(=O)C(C(N)=O)=C(O)C(N(C)C)[C@@H]4C[C@@H]2C3)cc1` (stereo partly drawn) [DS], for which the MIC is less than 4 µg/mL in experiment [1] (setting [9]) and greater than 4 µg/mL in experiment [2] (setting [10]).
In the case of `CN(C)c1cc(CNC(=O)Oc2ccc(Br)cc2)c(O)c2c1C[C@H]1C[C@H]3[C@H](N(C)C)C(O)=C(C(N)=O)C(=O)[C@@]3(O)C(O)=C1C2=O` [FH], the MIC is less than 4 µg/mL in experiment [1] (setting [9]) and greater than 4 µg/mL in experiment [2] (setting [10]).
For the compound `COC(=O)c1ccc(O)c2c1C[C@H]1C[C@H]3[C@H](N(C)C)C(O)=C(C(N)=O)C(=O)[C@@]3(O)C(O)=C1C2=O`, the MIC in experiment [1] (setting [5]) and in experiment [2] (setting [6]) was less than 4 µg/mL each time.
With `CN(C)[C@@H]1C(O)=C(C(N)=O)C(=O)[C@@]2(O)C(O)=C3C(=O)c4c(O)ccc(C#Cc5cccnc5)c4C[C@H]3C[C@@H]12`, the MIC in experiment [1] (setting [7]) and in experiment [2] (setting [8]) was less than 4 µg/mL in each case.
For `CN(C)c1cc(-c2ccc(Cl)c(Cl)c2)c(O)c2c1C[C@H]1C[C@H]3[C@H](N(C)C)C(O)=C(C(N)=O)C(=O)[C@@]3(O)C(O)=C1C2=O` [AI], the results for the MIC in experiment [1] (setting [3]) and in experiment [2] (setting [4]) were less than 4 µg/mL and greater than 4 µg/mL, respectively.
Turning to `CCC(=O)O[C@@H]1[C@H]2[C@H](N(C)C)C(O)=C(C(N)=O)C(=O)[C@@]2(O)C(O)=C2C(=O)c3c(O)cccc3C(C)[C@H]21` (stereo partly drawn), the MIC in experiment [1] (setting [7]) and in experiment [2] (setting [8]) was greater than 4 µg/mL in each case.
Take `C[C@H]1c2c(N)cc(I)c(O)c2C(=O)C2=C(O)[C@]3(O)C(=O)C(C(N)=O)=C(O)[C@@H](N(C)C)[C@@H]3[C@@H](O)[C@@H]21`: the MIC in experiment [1] (setting [5]) and in experiment [2] (setting [6]) was greater than 4 µg/mL each time.
With `CON(C)CC(=O)Nc1ccc(-c2ccc(O)c3c2C[C@H]2C[C@H]4[C@@H](N(C)C)C(O)=C(C(N)=O)C(=O)[C@@]4(O)C(O)=C2C3=O)cc1` [PN], the MIC in experiment [1] (setting [3]) is less than 4 µg/mL; in experiment [2] (setting [4]) it was greater than 4 µg/mL.
Regarding `CN(C)c1cc(CNCC(=O)O)c(O)c2c1C[C@H]1C[C@H]3[C@H](N(C)C)C(O)=C(C(N)=O)C(=O)[C@@]3(O)C(O)=C1C2=O`, the MIC in experiment [1] (setting [5]) and in experiment [2] (setting [6]) was greater than 4 µg/mL in each case.
Turning to `COc1cccc(C#Cc2cc(N(C)C)c3c(c2O)C(=O)C2=C(O)[C@]4(O)C(=O)C(C(N)=O)=C(O)[C@@H](N(C)C)[C@@H]4C[C@@H]2C3)c1`, the MIC in experiment [1] (setting [5]) and in experiment [2] (setting [6]) was less than 4 µg/mL each time.
For the compound `CCOP(=O)(OCC)C(Nc1cc(N(C)C)c2c(c1O)C(=O)C1=C(O)[C@]3(O)C(=O)C(C(N)=O)=C(O)[C@@H](N(C)C)[C@@H]3C[C@@H]1C2)c1ccccc1` (stereo partly drawn) [AA], the MIC in experiment [1] (setting [9]) and in experiment [2] (setting [10]) was greater than 4 µg/mL throughout.
Turning to `CC(C)COC(=O)NCc1cc(N(C)C)c2c(c1O)C(=O)C1=C(O)[C@]3(O)C(=O)C(C(N)=O)=C(O)[C@H](N(C)C)[C@@H]3C[C@@H]1C2` [EQ], the MIC in experiment [1] (setting [3]) was less than 4 µg/mL; in experiment [2] (setting [4]), greater than 4 µg/mL.
The corresponding values for `COc1ccc(-c2ccc(O)c3c2C[C@H]2C[C@H]4[C@H](N(C)C)C(O)=C(C(N)=O)C(=O)[C@@]4(O)C(O)=C2C3=O)cc1CN1CCN(C)CC1` [JY] are less than 4 µg/mL and greater than 4 µg/mL.
For `CCCC/C(Cl)=C/c1ccc(O)c2c1C[C@H]1C[C@H]3[C@H](N(C)C)C(O)=C(C(N)=O)C(=O)[C@@]3(O)C(O)=C1C2=O`, the MIC in experiment [1] (setting [5]) and in experiment [2] (setting [6]) was less than 4 µg/mL each time.
Regarding `C[C@H]1c2cccc(O)c2C(=O)C2=C(O)[C@]3(O)C(=O)C(C(N)=O)=C(O)[C@@H](N(C)C)[C@@H]3[C@@H](OC(=O)CCN3CCCC3)[C@@H]21` [R], the MIC in experiment [1] (setting [3]) and in experiment [2] (setting [4]) was less than 4 µg/mL each time.
Turning to `CN(C)C(=O)c1ccc(O)c2c1C[C@H]1C[C@H]3[C@H](N(C)C)C(O)=C(C(N)=O)C(=O)[C@@]3(O)C(O)=C1C2=O`, the MIC in experiment [1] (setting [5]) was less than 4 µg/mL; in experiment [2] (setting [6]) it was greater than 4 µg/mL.
For `CCOc1ccc(-c2ccc(O)c3c2C[C@H]2C[C@H]4C(N(C)C)C(O)=C(C(N)=O)C(=O)[C@@]4(O)C(O)=C2C3=O)cc1CNC(=O)NC(C)(C)C` (stereo partly drawn) [HK], the MIC in experiment [1] (setting [3]) was less than 4 µg/mL; in experiment [2] (setting [4]) it was greater than 4 µg/mL.
As for `CN(C)[C@H]1C(O)=C(C(N)=O)C(=O)[C@@]2(O)C(O)=C3C(=O)c4c(O)ccc(-c5ccc(/N=C\NC(C)(C)C)cc5)c4C[C@H]3C[C@@H]12` [GU], the MIC in experiment [1] (setting [3]) and in experiment [2] (setting [4]) was less than 4 µg/mL each time.
Regarding `CONC(=O)c1cccc(-c2ccc(O)c3c2C[C@H]2C[C@H]4[C@H](N(C)C)C(O)=C(C(N)=O)C(=O)[C@@]4(O)C(O)=C2C3=O)c1`, the MIC in experiment [1] (setting [5]) was less than 4 µg/mL; in experiment [2] (setting [6]) it was greater than 4 µg/mL.
On to `CCCOC(=O)Nc1ccc(-c2ccc(O)c3c2C[C@H]2C[C@H]4[C@H](N(C)C)C(O)=C(C(N)=O)C(=O)[C@@]4(O)C(O)=C2C3=O)cc1`, for which the MIC in experiment [1] (setting [5]) and in experiment [2] (setting [6]) was less than 4 µg/mL each time.
For the compound `CN1CCN(Cc2ccc(-c3cc(N(C)C)c4c(c3O)C(=O)C3=C(O)[C@]5(O)C(=O)C(C(N)=O)=C(O)[C@@H](N(C)C)[C@@H]5C[C@@H]3C4)o2)CC1`, the MIC in experiment [1] (setting [5]) was less than 4 µg/mL; in experiment [2] (setting [6]) it was greater than 4 µg/mL.
As for `CCOP(=O)(OCC)C(Nc1ccc2c(c1O)C(=O)C1=C(O)[C@]3(O)C(=O)C(C(N)=O)=C(O)[C@@H](N(C)C)[C@@H]3[C@@H](O)[C@@H]1[C@H]2C)c1ccc(OC)cc1` (stereo partly drawn), the results for the MIC in experiment [1] (read-out: Gram+ activity) and in experiment [2] (read-out: Gram− activity) were less than 4 µg/mL and greater than 4 µg/mL, respectively.
`CN(C)c1cc(CNC(=O)Oc2ccc(F)cc2)c(O)c2c1C[C@H]1C[C@H]3[C@H](N(C)C)C(O)=C(C(N)=O)C(=O)[C@@]3(O)C(O)=C1C2=O` [FJ]: the MIC in experiment [1] (setting [9]) was less than 4 µg/mL; in experiment [2] (setting [10]) it was greater than 4 µg/mL.
In the case of `CN(C)c1ccc2c(c1O)C(=O)C1=C(O)[C@]3(O)C(=O)C(C(N)=O)=C(O)[C@@H](N(C)C)[C@@H]3C[C@@H]1C2` [JX], the MIC in experiment [1] (setting [3]) is less than 4 µg/mL; in experiment [2] (setting [4]), greater than 4 µg/mL.
`CC1c2ccc(-c3ccc4c(c3)OCO4)c(O)c2C(=O)C2=C(O)[C@]3(O)C(=O)C(C(N)=O)=C(O)[C@@H](N(C)C)[C@@H]3[C@@H](O)[C@@H]21` (stereo partly drawn): the MIC in experiment [1] (setting [7]) and in experiment [2] (setting [8]) was less than 4 µg/mL in each case.
As to `CO/N=C(/C)c1cc(C(C)(C)C)c(O)c2c1C[C@H]1C[C@H]3[C@H](N(C)C)C(O)=C(C(N)=O)C(=O)[C@@]3(O)C(O)=C1C2=O` [IC], the MIC in experiment [1] (setting [3]) is less than 4 µg/mL; in experiment [2] (setting [4]), greater than 4 µg/mL.
Take `CN(C)[C@@H]1C(O)=C(C(N)=O)C(=O)[C@@]2(O)C(O)=C3C(=O)c4c(O)c(CNC(=O)C5CC5)cc(-c5ccc(C(C)(C)C)cc5)c4C[C@H]3C[C@@H]12`: the MIC in experiment [1] (setting [5]) and in experiment [2] (setting [6]) was less than 4 µg/mL throughout.
On to `CN(C)[C@@H]1C(O)=C(C(N)=O)C(=O)[C@@]2(O)C(O)=C3C(=O)c4c(O)c(C(C)(C)C)cc(-c5cnc6ccccc6c5)c4C[C@H]3C[C@@H]12`, for which the MIC in experiment [1] (setting [5]) and in experiment [2] (setting [6]) was greater than 4 µg/mL in each case.
`COc1cc(C/C=C\c2ccc(O)c3c2C[C@H]2C[C@H]4[C@H](N(C)C)C(O)=C(C(N)=O)C(=O)[C@@]4(O)C(O)=C2C3=O)ccc1O` [BW]: the values for the MIC in experiment [1] (setting [3]) and in experiment [2] (setting [4]) were less than 4 µg/mL and greater than 4 µg/mL, respectively.
The corresponding values for `CCOC(=O)CNCc1ccc(-c2ccc(O)c3c2C[C@H]2C[C@H]4[C@@H](N(C)C)C(O)=C(C(N)=O)C(=O)[C@@]4(O)C(O)=C2C3=O)cc1` [GK] are less than 4 µg/mL and greater than 4 µg/mL.
As for `COc1cccc(C#Cc2ccc(O)c3c2C[C@H]2C[C@H]4[C@H](N(C)C)C(O)=C(C(N)=O)C(=O)[C@@]4(O)C(O)=C2C3=O)c1`, the MIC in experiment [1] (setting [7]) and in experiment [2] (setting [8]) was less than 4 µg/mL throughout.
`C[C@H]1c2ccc(-c3cccc(CN4CCN(C)CC4)c3)c(O)c2C(=O)C2=C(O)[C@]3(O)C(=O)C(C(N)=O)=C(O)[C@@H](N(C)C)[C@@H]3[C@@H](O)[C@@H]21` [JA]: the MIC in experiment [1] (setting [3]) and in experiment [2] (setting [4]) was greater than 4 µg/mL each time.
For `CN(C)[C@@H]1C(O)=C(C(N)=O)C(=O)[C@@]2(O)C(O)=C3C(=O)c4c(O)ccc(-c5cnccn5)c4C[C@H]3C[C@@H]12`, the MIC in experiment [1] (setting [5]) and in experiment [2] (setting [6]) was less than 4 µg/mL in each case.

Source of the values: patent US20150141381A1, “TETRACYCLINE COMPOUNDS HAVING TARGET THERAPEUTIC ACTIVITIES” (Paratek Pharmaceuticals, Inc., priority 2001, published 2015).
